Patent US10736891B2, “Composition and method for treating chagas disease” (priority 2016, dated 2020)

Columns and labels:
[1] = cited from earlier work
[2] = in vivo
Description: Accordingly, prior to additional testing, a dosage of Itraconazole and Amiodarone was prepared in accordance with the above example, but with nanomilling of the Itraconazole before formulating into pharmaceutical compositions and administration to patients. In this example, a suspension of itraconazole was prepared and then subject to milling using a media mill such as disclosed in Kumar et al., J. Pharm. Sci. 104:3018-3028 (2015), wherein Itraconazole (1%, w/v) was suspended in a desired concentration of an aqueous stabilizer solution, and the prepared suspension was stirred for 30 minutes or more for complete wetting of the drug by the stabilizer solution. The suspension (e.g., 150 mL) was then wet milled or wet grinded using a conventional wet milling or grinding device, namely one manufactured by Netzsch of Exton, Pa. Using this equipment, the mill is operated at a suitable speed, e.g., 2500 rpm in a continuous mode for a time suitable to reduce particle size to a range of 1 and 400 nm, e.g., 75 minutes. The temperature of the sample was maintained at below 25° C. during the process, and two cooling bath recirculators were used, including one attached to the milling device and the other attached to suspension recirculation chambers. […]

[3] = in vivo; settings: human
[4] = increase from 5 mg/kg to 10 mg/kg once daily; cited from earlier work
[5] = Blood chemistries and liver biopsies under amiodarone/itraconazole, dogs
[6] = Blood chemistries and liver biopsies under amiodarone/itraconazole, monkeys

| Structure (SMILES) | Itraconazole plasma level when given with food compared with without food [1] | increase of bioavailability of itraconazole [2] [%] | Cmax ([3]; 5 mg/kg) [ng/mL] | increase in plasma Itraconazole level compared with the Cmax of a previous study (Paniz-Mondolfi et al. 2009) ([3]; 10 mg/kg) | Cmax ([3]; po, 10 mg/kg) [ng/mL] | Itraconazole Cmax increase [4] | arrythmias [5] | hepatic effects (multiple blood chemistries) [5] | arrythmias [6] | hepatic effects (multiple blood chemistries) [6] |
| --- | --- | --- | --- | --- | --- | --- | --- | --- | --- | --- |
| CCC(C)n1ncn(-c2ccc(N3CCN(c4ccc(OCC5COC(Cn6cncn6)(c6ccc(Cl)cc6Cl)O5)cc4)CC3)cc2)c1=O (stereo not shown) [Itraconazole] | higher | 2000 | 3550 | 5-6 fold | 13500 | 5-6 fold | – | – | – | – |
| CCCCc1oc2ccccc2c1C(=O)c1cc(I)c(OCCN(CC)CC)c(I)c1 [Amiodarone] | – | – | – | – | – | – | 0 | 0 | 0 | 0 |
